Assay results published in US9643917B2, “Water-soluble propofol derivatives and uses thereof” (JIANGSU NHWALUOKANG PHARMCEUTICAL RESEARCH AND DEVELOPMENT …, priority 2014, dated 2017).
Counter-ions that a name gives are not always drawn. Like-named read-outs stand apart in the source and are kept apart here.

Key:
[1] = rabbit plasma, 37° C., HPLC
Description: (§1) 0.1 ml samples were taken from each of the solutions, added respectively to 1 ml of blood plasma of rabbit (taken from New Zealand white rabbits, treated according to conventional methods, anticoagulated with heparin) or 1 ml of blood plasma of rat (taken from live SD rats, processed according to conventional methods, anti coagulated with heparin), homogeneously mixed, and placed in a thermostatic water bath at 37° C. for incubation with time being recorded. Samples were taken at different time points after the experiment began, and 2 ml of acetonitrile was immediately added. The samples were shaken and centrifuged for 5 min (15,000 rpm), and the supernatant was then taken for HPLC analysis.

[2] = rat plasma, 37° C., HPLC
Description: as §1

physchem = details: physiological saline, saline or isotonic

Q: Which “Dissociation percent 15 s” value ([1]; 15 s) does the source give for `CC(C)c1cccc(C(C)C)c1OC(=O)C(F)CCN(C)C` (racemic) [E1, Propofol 4-(N,N-dimethyl)amino-2-(R,S)-fluorobutyrate hydrochloride] here?
A: 67.5%

Q: And the “Dissociation percent 30 s” value ([1]; 30 s)?
A: 85.5%

Q: And the “Dissociation percent 5 s” value ([2]; 5 s)?
A: 75.1%

Q: What about the “Dissociation percent 15 s” value ([2]; 15 s) of the same compound?
A: 83.2%

Q: What about the “Dissociation percent 30 s” value ([2]; 30 s) of the same compound?
A: 96.7%

Q: What about the solubility (physchem) of the same compound?
A: > 20 mg/mL
